Patent US11897865B2, “ABHD12 inhibitors and methods of making and using same” (THE SCRIPPS RESEARCH INSTITUTE, priority 2018, dated 2024)

Molecular target: T1, ABHD12 (Mus musculus, UniProt Q99LR1)
T1 construct: from tissue; host or cells: brain membrane proteome
T1 sequence (Q99LR1 1-398): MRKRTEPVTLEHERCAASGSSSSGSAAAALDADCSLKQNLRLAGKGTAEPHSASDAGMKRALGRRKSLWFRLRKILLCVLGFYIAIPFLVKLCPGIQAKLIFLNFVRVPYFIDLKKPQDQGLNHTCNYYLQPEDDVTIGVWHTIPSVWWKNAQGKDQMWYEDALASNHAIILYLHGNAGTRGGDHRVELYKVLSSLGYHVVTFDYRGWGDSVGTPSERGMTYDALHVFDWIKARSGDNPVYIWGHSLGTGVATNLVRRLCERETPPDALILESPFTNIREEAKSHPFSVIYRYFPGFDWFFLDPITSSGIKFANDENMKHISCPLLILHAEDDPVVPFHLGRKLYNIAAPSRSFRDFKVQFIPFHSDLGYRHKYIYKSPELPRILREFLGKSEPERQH
Assay: Gel-based competitive ABPP, JJH350 probe vs brain membrane proteome
Type: biochemical
Settings: 10 μM compound, read-out: % Inhibition @ 10 μM (ABPP gel_JJH350 probe vs brain mem)
Procedure: Gel-Based Competitive ABPP for In Vitro Inhibitor Treatment of Proteomes:
Gel-based ABPP assays were performed as previously reported (Bachovchin, D. A. et al. Superfamily-wide portrait of serine hydrolase inhibition achieved by library-versus-library screening. Proc. Natl. Acad. Sci. U. S. A. 2010, 107, 20941-20946). Cell or tissue proteomes (50 μL, 1 mg/mL) were treated with either FP-Rh (1 μM final concentration) or JJH350 (2 μM final concentration) for 45 min at 37° C. For FP-Rh labeled samples, the reactions were quenched by adding 20 μL of 4× SDS-PAGE loading buffer. The 30 μL of the quenched samples were loaded on gel for analysis. For (S)-1,3-dioxo-7-(4-phenoxybenzoyl)hexahydroimidazo[1,5-a]pyrazin-2(3H)-yl 4-(4-(prop-2-yn-1-yloxy)phenyl)piperazine-1-carboxylate (JJH350)-labeled samples, copper-catalyzed azide-alkyne cycloaddition (CuAAC) was used for visualizing the labeled proteins following the reported protocol. Briefly, rhodamine-PEG3-N3 (1 μL/reaction, 1.25 mM in DMSO), CuSO4 (1 μL/reaction, 50 mM in H2O), TBTA (3 μL/reaction, 1.7 mM in DMSO/t-BuOH [1:4, v/v]) and tris(2-carboxyethyi)phosphine (TCEP) (1 μL/reaction, 50 mM in H2O, freshly prepared) were premixed. 6 μL of this click reagent mixture was immediately added to each JJH350-labeled samples (50 μL, 1 mg/mL) and incubated for 1 h at room temperature. The reactions were quenched by adding 20 μL of 4× SDS-PAGE loading buffer. The 40 μL of the quenched samples were loaded on a gel for analysis.
After separation by SDS-PAGE (10% acrylamide), samples were visualized by in-gel fluorescence scanning using the ChemiDoc MP system (Bio-Rad). Band intensities were quantified using the Image Lab (5.2.1) software (Bio-Rad).

SMILES	inhibition at 10 µM [%]
CC(=O)c1ccnc(N2CCC(NC(=S)Nc3cccnc3)CC2)c1 [Example 76, 1-(1-(4-Acetylpyridin-2-yl)piperidin-4-yl)-3-(pyridin-3-yl)thiourea]	25 to 50
CN(C(=S)Nc1cccnc1)C1CCN(c2ncc(C(F)(F)F)cc2Cl)CC1 [Example 82, 1-(1-(3-Chloro-5-(trifluoromethyl)pyridin-2-yl)piperidin-4-yl)-1-methyl-3-(pyridin-3-yl)thiourea]	50 to 75
S=C(Nc1cccnc1)NC1CCN(c2cc(OC3CCCCC3)ccn2)CC1 [Example 30, 1-(1-(4-(Cyclohexyloxy)pyridin-2-yl)piperidin-4-yl)-3-(pyridin-3-yl)thiourea]	≥ 75
FC(F)(F)c1ccc(N2CCC(NC(=S)Nc3cccnc3)CC2)nn1 [Example 79, 1-(Pyridin-3-yl)-3-(1-(6-(trifluoromethyl)pyridazin-3-yl)piperidin-4-yl)thiourea]	0 to 25
S=C(Nc1cccnc1)NC1CCN(c2cc(OCC3CC3)ccn2)CC1 [Example 31, 1-(1-(4- (Cyclopropylmethoxy)pyridin-2-yl)piperidin-4-yl)-3-(pyridin-3-yl)thiourea]	≥ 75
FC(F)(F)Oc1ccc(N2CCC(NC(=S)Nc3cccnc3)CC2)nc1 [Example 13, 1-(Pyridin-3-yl)-3-(1-(5-(trifluoromethoxy)pyridin-2-yl)piperidin-4-yl)thiourea]	≥ 75
COc1ccc(-c2ccnc(N3CCC(NC(=S)Nc4cccnc4)CC3)c2)cc1 [Example 46, 1-(1-(4-(4-Methoxyphenyl)pyridin-2-yl)piperidin-4-yl)-3-(pyridin-3-yl)thiourea]	0 to 25
COc1ccnc(N2CCC(NC(=S)Nc3cccnc3)CC2)c1 [Example 44, 1-(1-(4-Methoxypyridin-2-yl)piperidin-4-yl)-3-(pyridin-3-yl)thiourea]	50 to 75
FC(F)(F)c1cc(Cl)cnc1N1CCC(NC(=S)Nc2cccnc2)CC1 [Example 18, 1-(1-(5-Chloro-3-(trifluoromethyl)pyridin-2-yl)piperidin-4-yl)-3-(pyridin-3-yl)thiourea]	≥ 75
Fc1ccc(-c2ccnc(N3CCC(NC(=S)Nc4cccnc4)CC3)c2)cc1 [Example 47, 1-(1-(4-(4-Fluorophenyl)pyridin-2-yl)piperidin-4-yl)-3-(pyridin-3-yl)thiourea]	≥ 75
CC(C)OC(=O)N1CCC(Oc2ccnc(N3CCC(NC(=S)Nc4cccnc4)CC3)c2)CC1 [Example 36, Isopropyl 4-((2-(4-(3-(pyridin-3-yl)thioureido)piperidin-1-yl)pyridin-4-yl)oxy)piperidine-1-carboxylate]	50 to 75
FC(F)(F)c1cnc(N2CCC(NC(=S)Nc3ccccc3)CC2)c(Cl)c1 [Example 9, 1-(1-(3-Chloro-5-(trifluoromethyl)pyridin-2-yl)piperidin-4-yl)-3-phenylthiourea]	≥ 75
FC(F)(F)Oc1ccc(Oc2ccnc(N3CCC(NC(=S)Nc4cccnc4)CC3)c2)c(Cl)c1 [Example 55, 1-(1-(4-(2-Chloro-4-(trifluoromethoxy)phenoxy)pyridin-2-yl)piperidin-4-yl)-3-(pyridin-3-yl)thiourea]	≥ 75
S=C(Nc1cccnc1)NC1CCN(c2ccc(Cl)cn2)CC1 [Example 11, 1-(1-(5-Chloropyridin-2-yl)piperidin-4-yl)-3-(pyridin-3-yl)thiourea]	≥ 75
S=C(Nc1cccnc1)NC1CCN(c2ccc(Cl)nc2)CC1 [Example 19, 1-(1-(6-Chloropyridin-3-yl)piperidin-4-yl)-3-(pyridin-3-yl)thiourea]	0 to 25
FC(F)(F)c1ccccc1Oc1ccnc(N2CCC(NC(=S)Nc3cccnc3)CC2)c1 [Example 53, 1-(Pyridin-3-yl)-3-(1-(4-(2-(trifluoromethyl)phenoxy)pyridin-2-yl)piperidin-4-yl)thiourea]	≥ 75
S=C(Nc1cccnc1)NC1CCN(c2ncccc2Cl)CC1 [Example 17, 1-(1-(3-Chloropyridin-2-yl)piperidin-4-yl)-3-(pyridin-3-yl)thiourea]	50 to 75
FC1(F)CCC(Oc2ccnc(N3CCC(NC(=S)Nc4cccnc4)CC3)c2)CC1 [Example 35, 1-(1-(4-((4,4-Difluoro-cyclohexyl)oxy)pyridin-2-yl)piperidin-4-yl)-3-(pyridin-3-yl)thiourea]	≥ 75
Fc1ccc(OC(F)(F)F)cc1Oc1ccnc(N2CCC(NC(=S)Nc3cccnc3)CC2)c1 [Example 58, 1-(1-(4-(2-Fluoro-5-(trifluoromethoxy)phenoxy)pyridin-2-yl)piperidin-4-yl)-3-(pyridin-3-yl)thiourea]	≥ 75
FC(F)(F)Oc1ccc(Oc2cc(N3CCC(NC(=S)Nc4cccnc4)CC3)nc(C(F)(F)F)c2)cc1 [Example 60, 1-(Pyridin-3-yl)-3-(1-(4-(4-(trifluoromethoxy)phenoxy)-6-(trifluoromethyl)pyridin-2-yl)piperidin-4-yl)thiourea]	0 to 25
Fc1cc(Cl)ccc1Oc1ccnc(N2CCC(NC(=S)Nc3cccnc3)CC2)c1 [Example 43, 1-(1-(4-(4-Chloro-2-fluorophenoxy)pyridin-2-yl)piperidin-4-yl)-3-(pyridin-3-yl)thiourea]	≥ 75
Fc1cc(C(F)(F)F)cnc1N1CCC(NC(=S)Nc2cccnc2)CC1 [Example 21, 1-(1-(3-Fluoro-5-(trifluoromethyl)pyridin-2-yl)piperidin-4-yl)-3-(pyridin-3-yl)thiourea]	≥ 75
O=C(Nc1cccnc1)NC1CCN(c2ncc(C(F)(F)F)cc2Cl)CC1 [Example 77, 1-(1-(3-Chloro-5-(trifluoromethyl)pyridin-2-yl)piperidin-4-yl)-3-(pyridin-3-yl)urea]	25 to 50

Same assay, conditions: at 2 uM compound

SMILES	% Inhibition (ABPP gel_JJH350 probe vs brain mem), at 2 uM
C#Cc1ccc(N2CCC(NC(=S)Nc3cccnc3)CC2)nc1 [Example 10, 1-(1-(5-Ethynylpyridin-2-yl)piperidin-4-yl)-3-(pyridin-3-yl)thiourea]	C (at 2 uM) (% inhibition is greater than or equal to 25% and less than 50%)

Same assay, conditions: read-out: IC50 (ABPP gel_JJH350 probe vs brain mem)

SMILES	IC50 [nM]
CC(=O)c1ccnc(N2CCC(NC(=S)Nc3cccnc3)CC2)c1 [Example 76, 1-(1-(4-Acetylpyridin-2-yl)piperidin-4-yl)-3-(pyridin-3-yl)thiourea]	1000 to 25000
S=C(Nc1cccnc1)NC1CCN(c2cc(OC3CCCCC3)ccn2)CC1 [Example 30, 1-(1-(4-(Cyclohexyloxy)pyridin-2-yl)piperidin-4-yl)-3-(pyridin-3-yl)thiourea]	1000 to 25000
S=C(Nc1cccnc1)NC1CCN(c2cc(OCC3CC3)ccn2)CC1 [Example 31, 1-(1-(4- (Cyclopropylmethoxy)pyridin-2-yl)piperidin-4-yl)-3-(pyridin-3-yl)thiourea]	1000 to 25000
COc1ccnc(N2CCC(NC(=S)Nc3cccnc3)CC2)c1 [Example 44, 1-(1-(4-Methoxypyridin-2-yl)piperidin-4-yl)-3-(pyridin-3-yl)thiourea]	1000 to 25000
Fc1ccc(Oc2ccnc(N3CCC(NC(=S)Nc4cccnc4)CC3)c2Cl)cc1OC(F)(F)F [Example 68, 1-(1-(3-Chloro-4-(4-fluoro-3-(trifluoromethoxy)phenoxy)pyridin-2-yl)piperidin-4-yl)-3-(pyridin-3-yl)thiourea]	≤ 100
Cc1cc(F)ccc1Oc1ccnc(N2CCC(NC(=S)Nc3cccnc3)CC2)c1Cl [Example 69, 1-(1-(3-Chloro-4-(4-fluoro-2-methylphenoxy)pyridin-2-yl)piperidin-4-yl)-3-(pyridin-3-yl)thiourea]	100 to 1000
FC(F)(F)Oc1cc(Oc2ccnc(N3CCC(NC(=S)Nc4cccnc4)CC3)c2Cl)ccc1Cl [Example 63, 1-(1-(3-Chloro-4-(4-chloro-3-(trifluoromethoxy)phenoxy)pyridin-2-yl)piperidin-4-yl)-3-(pyridin-3-yl)thiourea]	≤ 100
Cc1ccc(Oc2ccnc(N3CCC(NC(=S)Nc4cccnc4)CC3)c2)cc1 [Example 75, 1-(Pyridin-3-yl)-3-(1-(4-(p-tolyloxy)pyridin-2-yl)piperidin-4-yl)thiourea]	1000 to 25000
